Test results published in US9555023B2, “Pharmaceutical salts and polymorphs of a factor Xa inhibitor” (Millennium Pharmaceuticals, Inc., priority 2005, dated 2017).
Where two headings read alike, the source gives them in different places. One block for each compound: values may come before it.

Legend:
[1] = Primary salt screen (purity, crystallinity and stability of precipitated salts); conditions: 20 mg free base in 10% (aq.) THF, 1.1 eq. acid in ethanol, tert-butyl methyl ether to induce precipitation
Protocol: To 20 mg of the free base in 3 mL of 10% (aq.) THF mixture was added 1.1 eq. of the acid in 1 mL ethanol. The mixture was shaken for 2 hours, followed by the addition of 2 mL of tert-butyl methyl ether in order to induce precipitation and shaken for another 2 hours. The samples were then filtered, dried and then analyzed to judge their purity, crystallinity and stability.

[2] = Secondary screen: crystallinity (XRPD); type: physicochemical; conditions: for Crystallinity: secondary screen, Table 5
Protocol: X-Ray Powder Diffraction patterns were collected on a Siemens D5000 diffractometer using CuKα radiation (40 kV, 40 mA), […], automatic divergence and receiving slits, a graphite secondary monochromator and a scintillation counter.
Samples run under ambient conditions were prepared as flat plate specimens using powder. Approximately 35 mg of the sample was gently packed into a cavity cut into polished, zero-background (510) silicon wafer. The sample was rotated in its own plane during analysis. The details of the data collection are given for the method in Table 2 below: […]

[3] = Stability: hydrolyzed amidine content by HPLC after 57° C. / 75% humidity; type: physicochemical; conditions: for Hydrolyzed Amidine Content (3 days) / Hydrolyzed Amidine Content (6 days) / Hydrolyzed Amidine Content (10 days): 57° C., 75% room humidity, percentage of the main peak
Protocol: To assess the thermal and hydrolytic stability of the salt, tests known to those of skill in the art are performed.
The sample solvent was methanol and a mobile phase modifier of 0.1% trifluoroacetic acid was employed. Data were collected after 3, 6 and 10 days except data for the propionate was collected at 0, 3, and 8 days. […] All other impurity peaks were disregarded in the calculation

[4] = Solubility in water by HPLC; type: physicochemical
Protocol: This was measured by suspending enough salt in 0.25 mL of solvent (water) to give a maximum final concentration of ≧10 mg/mL of the parent free form of the salt. The suspension was equilibrated at 25° C. for 24 hr followed by a pH check and filtration through a glass fibre C 96 well plate. The filtrate was then diluted down 101×. Quantitation was by HPLC with reference to a standard dissolved in DMSO at approx 0.1 mg/mL. Different volumes of the standard, diluted and undiluted tests were injected. […] If there was sufficient solid in the filter plate the XRPD was normally checked for phase changes, hydrate formation, amorphization, crystallization, etc.

factor Xa = factor Xa (Homo sapiens, UniProt P00742); conditions: cited from earlier work
[5] = Gravimetric vapour sorption (GVS) water sorption; type: physicochemical; conditions: GVS isotherm, XRPD post GVS
Protocol: All samples were run on a Hiden IGASorp moisture sorption analyzer running CFRSorp software. Sample sizes were typically 10 mg. A moisture adsorption desorption isotherm was performed as outlined below (2 scans giving 1 complete cycle). All samples were loaded/unloaded at typical room humidity and temperature (40% RH, 25° C.). All samples were analyzed by XRPD post GVS analysis. The standard isotherm was performed at 25° C. at 10% RH intervals over a 0-90% RH range.

[6] = Log P determination by potentiometric titration (Sirius GlpKa); type: physicochemical; conditions: Octanol:ISA water
Source text: This was by potentiometric titration on a Sirius GlpKa instrument using three ratios of Octanol:ISA water to generate Log P, Log Pion, and Log D values. The data was refined using Refinement Pro software version 1.0. Predictions of Log P were made using ACD Ver. 8.08 and Syracuse KNOWWIN Ver. 1.67 software.

factor Xa, sequence (P00742 235-488 limits assumed): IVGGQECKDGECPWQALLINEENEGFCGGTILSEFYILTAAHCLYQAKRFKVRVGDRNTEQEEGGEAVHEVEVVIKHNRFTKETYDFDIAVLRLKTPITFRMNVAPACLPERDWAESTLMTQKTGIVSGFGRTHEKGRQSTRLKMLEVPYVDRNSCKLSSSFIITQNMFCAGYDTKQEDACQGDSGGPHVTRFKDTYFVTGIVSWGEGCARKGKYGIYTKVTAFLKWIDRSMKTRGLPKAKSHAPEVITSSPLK
factor Xa, sequence (P00742 41-179 partner limits assumed): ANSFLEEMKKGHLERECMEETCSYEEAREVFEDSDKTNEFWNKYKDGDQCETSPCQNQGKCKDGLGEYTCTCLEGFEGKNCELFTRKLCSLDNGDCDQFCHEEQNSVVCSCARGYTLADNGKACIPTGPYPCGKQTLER

Compound: Cl [Hydrochloric]
- Salt (primary screen grade: purity, crystallinity and stability) [1]: +++
- Crystallinity [2]: amorphous

Compound: COc1ccc(NC(=O)c2ccc(C(=N)N(C)C)cc2)c(C(=O)Nc2ccc(Cl)cn2)c1 [Maleate]
- solubility at 24 h ([4]; thermodynamic from solid, water, 25° C., 24 hr, as parent free form): 2050 to 2270 µg/mL
- moisture stability [5]: excellent moisture stability
- thermal and hydrolytic stability (in words) ([3]; listed as maleate salt): best stability observed
- thermal and hydrolytic stability (in words) ([3]; listed as maleate salt of Formula II): excellent
- Measured LogPion [6]: −0.08
- logD ([6]; read-out: Measured LogD): 0.09
- logP ([6]; read-out: Measured LogP): 3.09

Compound: Adipic
- Salt (primary screen grade: purity, crystallinity and stability) [1]: ++

Compound: CC(=O)O [Acetate]
- thermal and hydrolytic stability (in words) [3]: did not possess good thermal and hydrolytic stability
- Hydrolyzed Amidine Content (3 days) [3]: 0.62-1.11%
- Hydrolyzed Amidine Content (6 days) [3]: 2.30-3.56%
- Hydrolyzed Amidine Content (10 days) [3]: 3.61-7.90%
- crystallinity (in words) [2]: good crystallinity
- Crystallinity [2]: crystalline

Further lines, with some results ahead:

- Salt (primary screen grade: purity, crystallinity and stability) [1]: +++
- Crystallinity [2]: amorphous
Compound: O=C(O)CCC(=O)O [Succinic]

- Hydrolyzed Amidine Content (3 days) [3]: 2.22%
- Hydrolyzed Amidine Content (6 days) [3]: 2.97%
- Hydrolyzed Amidine Content (10 days) [3]: 1.71%
- Salt (primary screen grade: purity, crystallinity and stability) [1]: +++
- Crystallinity [2]: crystalline
Compound: Propionic

- solubility (in words) [4]: did not exhibit optimum solubility
Compound: COc1ccc(NC(=O)c2ccc(C(=N)N(C)C)cc2)c(C(=O)Nc2ccc(Cl)cn2)c1 [compound of Formula I]
- factor Xa inhibition (in words) (factor Xa): potent factor Xa inhibitor

- Salt (primary screen grade: purity, crystallinity and stability) [1]: +
Compound: O=S(=O)(O)c1cccc2c(S(=O)(=O)O)cccc12 [Naphthalene-1,5-disulfonic]

- Salt (primary screen grade: purity, crystallinity and stability) [1]: −
Compound: O=C(O)CC(=O)O [Malonic]
